The nature of data set [1]: Solid-liquid equilibrium temperature. The following applies: Crystal.
For data set [2] the following is noted: Crystal.

± gives the expanded uncertainty stated by the source.

Regarding `CCCCCCCCCCCC(=O)O` [dodecanoic acid], the Solid-liquid equilibrium temperature in data set [1] (20000 kPa) turned out to be 320.6 ± 1.2 K; in data set [1] (40000 kPa) it was 325.17 ± 1.2 K; in data set [1] (60000 kPa), 329.76 ± 1.2 K; in data set [1] (70000 kPa), 331.86 ± 1.2 K; in data set [1] (80000 kPa) it was 334.1 ± 1.2 K; in data set [1] (90000 kPa), 336.1 ± 1.2 K. In data set [2], the Normal melting temperature was determined as 43.03 ± 1.2 °C.

Regarding `CCCCCCCC(=O)O` [octanoic acid], the Solid-liquid equilibrium temperature in data set [1] (20000 kPa) was found to be 294.52 ± 1.2 K; in data set [1] (40000 kPa), 299.35 ± 1.2 K; in data set [1] (60000 kPa), 303.85 ± 1.2 K; in data set [1] (80000 kPa), 308.09 ± 1.2 K; in data set [1] (90000 kPa), 309.98 ± 1.2 K. Besides, the Normal melting temperature in data set [2] is 16.71 ± 1.2 °C.

Take `CCCCCCCCCCCCCC(=O)O` [tetradecanoic acid]: the Solid-liquid equilibrium temperature was determined as 332.3 ± 1.2 K in data set [1] (20000 kPa); 337.25 ± 1.2 K in data set [1] (40000 kPa); 342.31 ± 1.2 K in data set [1] (60000 kPa); 344.68 ± 1.2 K in data set [1] (70000 kPa); 346.55 ± 1.2 K in data set [1] (80000 kPa); 348.93 ± 1.2 K in data set [1] (90000 kPa). The Normal melting temperature in data set [2] stood at 54.4 ± 1.2 °C.

The values are drawn from the NIST ThermoML archive (doi:10.1016/j.fluid.2007.02.007).
